Results on 31 compounds are retold here after PMC12040169 (PLOS Biology, 2025).

Each structure is given as a SMILES string.

This data set can be described thus: in vitro. The conditions noted are these: human, hela cells, % viability.
What is called viability is a read-out of living cells in per cent, often relative to untreated cells. As for `Cc1cn2nc(N3CCN(S(=O)(=O)c4ccccc4[N+](=O)[O-])CC3)sc2n1` [CBK298288], the viability at 28.5 h, 10 µM turned out to be 111%.

For the compound `COc1cc(CNC23CC4CC(CC(C4)C2)C3)c(Cl)cc1OCC(=O)O` [CBK269567], the viability at 28.5 h, 10 µM was found to be 87.6%.

`COc1ccc(S(=O)(=O)N2CCN(C(=O)COc3ccc4ccccc4c3)CC2)cc1` [CBK263371]: the viability at 28.5 h, 10 µM was found to be 91.5%.

For `CC(=O)N1CCCC(c2cc3cccnc3n2CC(=O)N(C)C)C1` (stereo not shown) [CBK285177], the viability at 28.5 h, 10 µM worked out at 106%.

As for `CCc1n[nH]c(C(=O)N2CCc3ncc(Cl)cc3C2)c1C` [CBK284856], the viability at 28.5 h, 10 µM was 92.8%.

Turning to `O=C1N[C@@H]2CCN(CC(=O)N3CCCC3)C[C@@H]2CCCCCOc2ccccc21` [CBK292141], the viability at 28.5 h, 10 µM was found to be 107%.

Consider `Cc1cc(Oc2ccccc2)nc(NCc2ccccc2)n1` [CBK003557], for which the viability at 28.5 h, 10 µM was found to be 99.1%.

In the case of `Cc1ccc(C(C)C)c(OCC(O)CNC(C)C)c1` (stereo not shown) [CBK026604C], the viability at 28.5 h, 10 µM stood at 111%.

Take `COc1ccc2ccccc2c1CNc1ccc(N2CCOCC2)c(C(=O)O)c1` [CBK269376]: the viability at 28.5 h, 10 µM came out at 94.1%.

As to `CC(=O)N1CCc2c([nH]c3c(C)cccc23)C12CCCN(CCCC#N)C2` (stereo not shown) [CBK039705], the viability at 28.5 h, 10 µM came out at 104%.

With `OCCN(CCO)c1ccccc1N(CCO)CCO` [CBK009141], the viability at 28.5 h, 10 µM came to 85.7%.

On to `O=C1c2ccccc2C(=O)N1CCOc1nccnc1-c1cnn(Cc2ccccc2)c1` [CBK107089], for which the viability at 28.5 h, 10 µM stood at 102%.

In the case of `COc1ccc(-c2c(C)nn(-c3ccc(Cl)nn3)c2C)c(C(=O)O)c1` [CBK005774], the viability at 28.5 h, 10 µM was 107%.

On to `CN1[C@@H](CCC(=O)N2CCc3ccccc32)CNC(=O)[C@@H]2[C@H]1CCN2Cc1ccc(O)cc1` [CBK289021], for which the viability at 28.5 h, 10 µM was 88.9%.

Turning to `CC(=O)N[C@H](C(=O)N1CCC2(C/C=C/C[C@H]3COCC[C@H]3NC(=O)[C@@H](CC(C)C)NC2=O)CC1)[C@@H](C)OC(C)(C)C` [CBK292197], the viability at 28.5 h, 10 µM was found to be 90.7%.

As for `Cc1n[nH]c(O)c1C(c1ccc(OC(=O)c2c(F)cccc2F)cc1)c1c(C)n[nH]c1O` [CBK265136], the viability at 28.5 h, 10 µM came out at 101%.

Turning to `CC[C@H]1CN(C(C)=O)CC[C@H]1CC(=O)Nc1nccs1` [CBK289130], the viability at 28.5 h, 10 µM came to 97.8%.

Take `CCC1CCCCN1C(=O)c1c(Cl)cccc1Cl` (stereo not shown) [CBK081303]: the viability at 28.5 h, 10 µM was 99.3%.

As for `O=C(Nc1ccc(OC(F)(F)F)cc1)c1cnc(-c2ccc(Cl)cc2)c(-c2ccc(O)cc2)c1` [CBK037485], the viability at 28.5 h, 10 µM came out at 109%.

Regarding `COc1ccccc1CC(C)NC(=O)c1ccnn1C(C)C` (stereo not shown) [CBK282595], the viability at 28.5 h, 10 µM was 86.9%.

For the compound `Ic1ccc2c3ccc(I)cc3c3[nH]c(-c4ccccc4)nc3c2c1` [CBK261218], the viability at 28.5 h, 10 µM stood at 92.9%.

On to `O=C1CCCCCC1C(Nc1ccc2ccccc2c1)c1cccnc1` (stereo not shown) [CBK293919], for which the viability at 28.5 h, 10 µM amounted to 86.4%.

Regarding `Cc1nc2ncc(-c3ccccc3C(=O)N(C(C)C)C(C)C)cn2n1` [CBK307054], the viability at 28.5 h, 10 µM amounted to 84.1%.

On to `O=C1Nc2ccc(-c3ccsc3)cc2C1(O)O` [CBK000421], for which the viability at 28.5 h, 10 µM was determined as 84.5%.

On to `Nc1ccc(-c2nnc(SCC(=O)Nc3ccc(Br)cc3F)n2-c2ccccc2)cc1` [CBK267175], for which the viability at 28.5 h, 10 µM came to 98.8%.

Regarding `O=C(O)C1CCCCC1C(=O)N1CCN(Cc2cccc(Cl)c2)CC1` (stereo not shown) [CBK270330], the viability at 28.5 h, 10 µM turned out to be 85%.

Consider `CC(Cc1cccs1)NC(=O)c1cc(C2CC2)on1` (stereo not shown) [CBK283244], for which the viability at 28.5 h, 10 µM is 107%.

Consider `CC(NC(=O)CCc1cccnc1)c1nc(-c2ccncc2)cs1` (stereo not shown) [CBK306243], for which the viability at 28.5 h, 10 µM is 90.8%.

`Cn1ccnc1C1(O)C2CCCC1CN(Cc1ccccc1F)C2` (stereo not shown) [CBK285206]: the viability at 28.5 h, 10 µM amounted to 97.2%.

For `O=[N+]([O-])c1ccc(CN2C[C@H](O)C[C@H]2c2nc(-c3ccccc3)no2)cc1` [CBK288833], the viability at 28.5 h, 10 µM is 108%.

For the compound `O=C(O)CNS(=O)(=O)c1ccc2ccccc2c1` [CBK034460], the viability at 28.5 h, 10 µM is 94.1%.
